Laboratory results from US20240158418A1 (C4 Therapeutics, Inc., priority 2021, published 2024).

What follows are compounds tested against T1, EGFR L858R-T790M (Homo sapiens, UniProt P00533, L858R/T790M) (assay: EGFR degradation, Total EGFR (L858R-specific) HTRF, NCI-H1975). Conditions: Table 9A; NCI-H1975 cells, 6 hours, Total EGFR HTRF; read-out: H1975 EGFR DC50.
T1 construct: NCI-H1975 (harboring EGFR heterozygous L858R-T790M mutations); host or cells: NCI-H1975
Format: cell-based
Summary of the method: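 FRET signal from HTRF kits measured phospho-EGFR at pY1068 or total EGFR after 6 h treatment at 37 °C. Compounds ran as 11-point half-log dilutions from 10 μM in duplicate, in cells in phenol red-free RPMI with 10% FBS. Concentrations giving 50% inhibition or degradation were reported as IC50 or DC50.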

T1 sequence (P00533 25-1210 T790M/L858R): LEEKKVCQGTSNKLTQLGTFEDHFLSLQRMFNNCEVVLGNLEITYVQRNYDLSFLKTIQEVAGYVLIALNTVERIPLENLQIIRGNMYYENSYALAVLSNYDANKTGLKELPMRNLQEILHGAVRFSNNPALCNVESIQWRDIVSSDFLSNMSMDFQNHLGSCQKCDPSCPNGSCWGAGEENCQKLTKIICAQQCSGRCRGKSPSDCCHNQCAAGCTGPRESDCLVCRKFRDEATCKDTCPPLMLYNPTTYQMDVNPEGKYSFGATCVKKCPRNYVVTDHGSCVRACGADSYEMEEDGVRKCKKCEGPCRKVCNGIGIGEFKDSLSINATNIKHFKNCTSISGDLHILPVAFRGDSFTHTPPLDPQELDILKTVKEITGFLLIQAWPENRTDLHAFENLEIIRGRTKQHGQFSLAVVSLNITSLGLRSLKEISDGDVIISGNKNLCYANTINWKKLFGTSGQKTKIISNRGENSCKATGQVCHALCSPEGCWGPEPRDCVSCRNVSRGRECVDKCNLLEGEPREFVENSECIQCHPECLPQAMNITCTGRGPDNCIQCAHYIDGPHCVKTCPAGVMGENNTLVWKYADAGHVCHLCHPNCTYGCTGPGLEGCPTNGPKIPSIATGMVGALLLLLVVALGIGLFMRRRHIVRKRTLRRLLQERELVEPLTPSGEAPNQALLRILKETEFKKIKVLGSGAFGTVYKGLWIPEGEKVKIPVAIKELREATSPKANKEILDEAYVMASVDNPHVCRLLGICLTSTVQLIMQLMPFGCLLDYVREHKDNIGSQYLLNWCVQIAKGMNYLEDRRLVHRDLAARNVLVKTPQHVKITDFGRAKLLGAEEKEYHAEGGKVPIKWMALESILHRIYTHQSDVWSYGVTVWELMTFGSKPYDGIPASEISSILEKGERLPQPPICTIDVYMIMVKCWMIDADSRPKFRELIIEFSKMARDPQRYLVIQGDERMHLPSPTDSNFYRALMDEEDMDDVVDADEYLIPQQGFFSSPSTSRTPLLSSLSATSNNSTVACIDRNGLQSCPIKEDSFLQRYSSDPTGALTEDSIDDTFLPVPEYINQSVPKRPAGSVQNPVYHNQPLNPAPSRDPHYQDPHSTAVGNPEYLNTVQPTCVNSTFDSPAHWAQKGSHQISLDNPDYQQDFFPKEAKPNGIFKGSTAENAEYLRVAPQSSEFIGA

DC50 [nM] | SMILES
< 50 | O=C1CCC(Oc2ccc(N3CCN(CC(=O)N4CCC(NC(=O)c5ccc(C#Cc6cc(F)c7c(c6)C(=O)N(C(C(=O)Nc6nccs6)c6ncn8c6CCC8)C7)cn5)CC4)CC3)cc2)C(=O)N1 (stereo not shown) [Compound 51, 5-[2-[2-[1-(6,7-dihydro-5H-pyrrolo[1,2-c]imidazol-1-yl)-2-oxo-2-(thiazol-2-ylamino)ethyl]-7-fluoro-3-oxo-isoindolin-5-yl]ethynyl]-N-[1-[2-[4-[4-[(2,6-dioxo-3-piperidyl)oxy]phenyl]piperazin-1-yl]acetyl]-4-piperidyl]pyridine-2-carboxamide]
< 50 | O=C1CC[C@H](Nc2ccc(C3CCN(CC(=O)N4CC[C@H](Oc5ccc(-c6cc(F)c7c(c6)C(=O)N(C(C(=O)Nc6nccs6)c6ncn8c6CCC8)C7)cc5)C4)CC3)cc2)C(=O)N1 (stereo partly drawn) [Compound 42, 2-(6,7-dihydro-5H-pyrrolo[1,2-c]imidazol-1-yl)-2-[6-[4-[(3S)-1-[2-[4-[4-[[(3S)-2,6-dioxo-3-piperidyl]amino]phenyl]-1-piperidyl]acetyl]pyrrolidin-3-yl]oxyphenyl]-4-fluoro-1-oxo-isoindolin-2-yl]-N-thiazol-2-yl-acetamide]
< 50 | O=C1CCC(Nc2ccc(C3CCN(CC(=O)N4CCC(Oc5ccc(-c6cc(F)c7c(c6)C(=O)N(C(C(=O)Nc6nccs6)c6ncn8c6CCC8)C7)cc5)CC4)CC3)cc2)C(=O)N1 (stereo not shown) [Compound 31, 2-(6,7-dihydro-5H-pyrrolo[1,2-c]imidazol-1-yl)-2-[6-[4-[[1-[2-[4-[4-[(2,6-dioxo-3-piperidyl)amino]phenyl]-1-piperidyl]acetyl]-4-piperidyl]oxy]phenyl]-4-fluoro-1-oxo-isoindolin-2-yl]-N-thiazol-2-yl-acetamide]
< 50 | O=C1CC[C@H](Nc2ccc(C3CCN(CC(=O)N4CC[C@@H](Oc5ccc(-c6cc(F)c7c(c6)C(=O)N(C(C(=O)Nc6nccs6)c6ncn8c6CCC8)C7)cc5)C4)CC3)cc2)C(=O)N1 (stereo partly drawn) [Compound 41, 2-(6,7-dihydro-5H-pyrrolo[1,2-c]imidazol-1-yl)-2-[6-[4-[(3R)-1-[2-[4-[4-[[(3S)-2,6-dioxo-3-piperidyl]amino]phenyl]-1-piperidyl]acetyl]pyrrolidin-3-yl]oxyphenyl]-4-fluoro-1-oxo-isoindolin-2-yl]-N-thiazol-2-yl-acetamide]

Same assay, conditions: Table 9B; NCI-H1975 cells, 6 hours, Total EGFR HTRF; read-out: H1975 EGFR DC50

DC50 [nM] | SMILES
50 to 150 | Cc1cc(C2CCN(C(=O)CN3CCC(c4ccc(NC5CCC(=O)NC5=O)cc4)CC3)CC2)ccc1-c1cc(F)c2c(c1)C(=O)N(C(C(=O)Nc1nccs1)c1ncn3c1CCC3)C2 (stereo not shown) [Compound 152, 2-(6,7-dihydro-5H-pyrrolo[1,2-c]imidazol-1-yl)-2-[6-[4-[1-[2-[4-[4-[(2,6-dioxo-3-piperidyl)amino]phenyl]-1-piperidyl]acetyl]-4-piperidyl]-2-methyl-phenyl]-4-fluoro-1-oxo-isoindolin-2-yl]-N-thiazol-2-yl-acetamide]
< 50 | O=C1CC[C@H](Nc2ccc(N3CCC(O)(CC(=O)N4CCC(n5cc(-c6cc(F)c7c(c6)C(=O)N(C(C(=O)Nc6nccs6)c6ncn8c6CCC8)C7)cn5)CC4)CC3)c(F)c2)C(=O)N1 (stereo partly drawn) [Compound 142, 2-(6,7-dihydro-5H-pyrrolo[1,2-c]imidazol-1-yl)-2-[6-[1-[1-[2-[1-[4-[[(3S)-2,6-dioxo-3-piperidyl]amino]-2-fluoro-phenyl]-4-hydroxy-4-piperidyl]acetyl]-4-piperidyl]pyrazol-4-yl]-4-fluoro-1-oxo-isoindolin-2-yl]-N-thiazol-2-yl-acetamide]
< 50 | C[C@@H]1CC(O)(CC(=O)N2CC3(C2)CN(c2ccc(-c4cc(F)c5c(c4)C(=O)N(C(C(=O)Nc4nccs4)c4ncn6c4CCC6)C5)cc2)C3)C[C@H](C)N1c1ccc(NC2CCC(=O)NC2=O)cc1F (stereo partly shown) [Compound 161, 2-(6,7-dihydro-5H-pyrrolo[1,2-c]imidazol-1-yl)-2-[6-[4-[2-[2-[(2s,6r)-1-[4-[(2,6-dioxo-3-piperidyl)amino]-2-fluoro-phenyl]-4-hydroxy-2,6-dimethyl-4-piperidyl]acetyl]-2,6-diazaspiro[3.3]heptan-6-yl]phenyl]-4-fluoro-1-oxo-isoindolin-2-yl]-N-thiazol-2-yl-acetamide]
< 50 | O=C1CCC(Nc2ccc(N3CCC(O)(CC(=O)N4CCC5(CC4)CN(c4ccc(-c6cc(F)c7c(c6)C(=O)N(C(C(=O)Nc6nccs6)c6ncn8c6CCC8)C7)cc4)C5)CC3)c(F)c2)C(=O)N1 (stereo not shown) [Compound 114, 2-(6,7-dihydro-5H-pyrrolo[1,2-c]imidazol-1-yl)-2-[6-[4-[7-[2-[1-[4-[(2,6-dioxo-3-piperidyl)amino]-2-fluoro-phenyl]-4-hydroxy-4-piperidyl]acetyl]-2,7-diazaspiro[3.5]nonan-2-yl]phenyl]-4-fluoro-1-oxo-isoindolin-2-yl]-N-thiazol-2-yl-acetamide]

Second part, the compound before the results:

SMILES | DC50 [nM]
O=C1CCN(c2cc(Cl)c(N3CCC(O)(CC(=O)N4CC5(C4)CN(c4ccc(-c6cc(F)c7c(c6)C(=O)N(C(C(=O)Nc6nccs6)c6ncn8c6CCC8)C7)cc4)C5)CC3)c(Cl)c2)C(=O)N1 (stereo not shown) [Compound 169, 2-[6-[4-[2-[2-[1-[2,6-dichloro-4-(2,4-dioxohexahydropyrimidin-1-yl)phenyl]-4-hydroxy-4-piperidyl]acetyl]-2,6-diazaspiro[3.3]heptan-6-yl]phenyl]-4-fluoro-1-oxo-isoindolin-2-yl]-2-(6,7-dihydro-5H-pyrrolo[1,2-c]imidazol-1-yl)-N-thiazol-2-yl-acetamide] | < 50
N#Cc1cc(N2CCC(=O)NC2=O)ccc1N1CCC(O)(CC(=O)N2CC3(C2)CN(c2ccc(-c4cc(F)c5c(c4)C(=O)N(C(C(=O)Nc4nccs4)c4ncn6c4CCC6)C5)cc2)C3)CC1 (stereo not shown) [Compound 171, 2-[6-[4-[2-[2-[1-[2-cyano-4-(2,4-dioxohexahydropyrimidin-1-yl)phenyl]-4-hydroxy-4-piperidyl]acetyl]-2,6-diazaspiro[3.3]heptan-6-yl]phenyl]-4-fluoro-1-oxo-isoindolin-2-yl]-2-(6,7-dihydro-5H-pyrrolo[1,2-c]imidazol-1-yl)-N-thiazol-2-yl-acetamide] | > 150
O=C1CCC(Nc2cc(F)c(N3CCC(O)(CC(=O)N4CC5(CCN(c6ccc(-c7cc(F)c8c(c7)C(=O)N(C(C(=O)Nc7nccs7)c7ncn9c7CCC9)C8)cc6)CC5)C4)CC3)c(F)c2)C(=O)N1 (single isomer, unassigned; isomer 1) [Compound 134, 2-(6,7-dihydro-5H-pyrrolo[1,2-c]imidazol-1-yl)-2-[6-[4-[2-[2-[1-[4-[[2,6-dioxo-3-piperidyl]amino]-2,6-difluoro-phenyl]-4-hydroxy-4-piperidyl]acetyl]-2,7-diazaspiro[3.5]nonan-7-yl]phenyl]-4-fluoro-1-oxo-isoindolin-2-yl]-N-thiazol-2-yl-acetamide, isomer 1] | < 50
Cn1nc(N2CCC(=O)NC2=O)c2ccc([C@@H]3CCN(C(=O)CN4CCC5(CC4)CN(c4ccc(-c6cc(F)c7c(c6)C(=O)N(C(C(=O)Nc6nccs6)c6ncn8c6CCC8)C7)cc4)C5)CC3(F)F)cc21 (stereo partly drawn) [Compound 141, 2-(6,7-dihydro-5H-pyrrolo[1,2-c]imidazol-1-yl)-2-[6-[4-[7-[2-[(4S)-4-[3-(2,4-dioxohexahydropyrimidin-1-yl)-1-methyl-indazol-6-yl]-3,3-difluoro-1-piperidyl]-2-oxo-ethyl]-2,7-diazaspiro[3.5]nonan-2-yl]phenyl]-4-fluoro-1-oxo-isoindolin-2-yl]-N-thiazol-2-yl-acetamide] | 50 to 150
Cn1nc(N2CCC(=O)NC2=O)c2ccc(C3CCN(CC(=O)N4CCC5(CC4)CN(c4ccc(-c6cc(F)c7c(c6)C(=O)N(C(C(=O)Nc6nccs6)c6ncn8c6CCC8)C7)cc4)C5)CC3(F)F)cc21 (stereo not shown) [Compound 174] | < 50
O=C1CCN(c2ccc(N3CCC(O)(CC(=O)N4CC5(C4)CN(c4ccc(-c6cc(F)c7c(c6)C(=O)N(C(C(=O)Nc6nccs6)c6ncn8c6CCC8)C7)cc4)C5)CC3)c(F)c2)C(=O)N1 (stereo not shown) [Compound 156, 2-(6,7-dihydro-5H-pyrrolo[1,2-c]imidazol-1-yl)-2-[6-[4-[2-[2-[1-[4-(2,4-dioxohexahydropyrimidin-1-yl)-2-fluoro-phenyl]-4-hydroxy-4-piperidyl]acetyl]-2,6-diazaspiro[3.3]heptan-6-yl]phenyl]-4-fluoro-1-oxo-isoindolin-2-yl]-N-thiazol-2-yl-acetamide] | 50 to 150
Cn1nc(N2CCC(=O)NC2=O)c2ccc([C@H]3CCN(C(=O)CN4CC5(CCN(c6ccc(-c7cc(F)c8c(c7)C(=O)N(C(C(=O)Nc7nccs7)c7ncn9c7CCC9)C8)cc6)CC5)C4)CC3(F)F)cc21 (stereo partly drawn) [Compound 143, 2-(6,7-dihydro-5H-pyrrolo[1,2-c]imidazol-1-yl)-2-[6-[4-[2-[2-[(4R)-4-[3-(2,4-dioxohexahydropyrimidin-1-yl)-1-methyl-indazol-6-yl]-3,3-difluoro-1-piperidyl]-2-oxo-ethyl]-2,7-diazaspiro[3.5]nonan-7-yl]phenyl]-4-fluoro-1-oxo-isoindolin-2-yl]-N-thiazol-2-yl-acetamide] | 50 to 150
Cn1nc(N2CCC(=O)NC2=O)c2ccc(C3CCN(CC(=O)N4CC5(C4)CN(c4ccc(-c6cc(F)c7c(c6)C(=O)N(C(C(=O)Nc6nccs6)c6ncn8c6CCC8)C7)cc4)C5)CC3F)cc21 (single isomer, unassigned; isomer 2) [Compound 125, 2-(6,7-dihydro-5H-pyrrolo[1,2-c]imidazol-1-yl)-2-[6-[4-[2-[2-[4-[3-(2,4-dioxohexahydropyrimidin-1-yl)-1-methyl-indazol-6-yl]-3-fluoro-1-piperidyl]acetyl]-2,6-diazaspiro[3.3]heptan-6-yl]phenyl]-4-fluoro-1-oxo-isoindolin-2-yl]-N-thiazol-2-yl-acetamide, isomer 2] | < 50
